From patent US10457655B2, “Compounds and compositions for inhibition of FASN” (FORMA Therapeutics, Inc., priority 2013, dated 2019)
Like-named read-outs stand apart in the source and are kept apart here.

Legend:
PC3 cells = test: Cell Proliferation Assays for FASN Inhibitors (PC3 cells, MTT); format: cell-based; details: Homo sapiens, PC-3, 96 h
Method: The effects of the FASN inhibitors on cultured cancer cell proliferation were studies with cell proliferation assays. PC3 cells were maintained at standard culture media (F12K media supplemented with 10% fetal bovine serum, 1×MEM nonessential amino acid and 1× penicillin/streptomycin). 2000-3000 cells/100 μL/well was seeded in a 96-well clear culture plate. The cells were incubated overnight in 5% CO2 at 37° C. for attachment. Cell media were removed and replaced with F12K media containing 10% lipid reduced serum and compound. The final DMSO concentration is 0.1%. The cells were maintained in 5% CO2 at 37° C. for 4 days. The viability of cells was determined by MTT assays. The IC50 of a given compound was calculated by fitting the dose response curve with a four parameter logistic equation.

FASN enzyme = FASN enzyme (Homo sapiens, UniProt P49327); test: Enzymatic Assay for FASN Inhibitors; format: biochemical
Sequence of FASN enzyme (P49327 whole entry): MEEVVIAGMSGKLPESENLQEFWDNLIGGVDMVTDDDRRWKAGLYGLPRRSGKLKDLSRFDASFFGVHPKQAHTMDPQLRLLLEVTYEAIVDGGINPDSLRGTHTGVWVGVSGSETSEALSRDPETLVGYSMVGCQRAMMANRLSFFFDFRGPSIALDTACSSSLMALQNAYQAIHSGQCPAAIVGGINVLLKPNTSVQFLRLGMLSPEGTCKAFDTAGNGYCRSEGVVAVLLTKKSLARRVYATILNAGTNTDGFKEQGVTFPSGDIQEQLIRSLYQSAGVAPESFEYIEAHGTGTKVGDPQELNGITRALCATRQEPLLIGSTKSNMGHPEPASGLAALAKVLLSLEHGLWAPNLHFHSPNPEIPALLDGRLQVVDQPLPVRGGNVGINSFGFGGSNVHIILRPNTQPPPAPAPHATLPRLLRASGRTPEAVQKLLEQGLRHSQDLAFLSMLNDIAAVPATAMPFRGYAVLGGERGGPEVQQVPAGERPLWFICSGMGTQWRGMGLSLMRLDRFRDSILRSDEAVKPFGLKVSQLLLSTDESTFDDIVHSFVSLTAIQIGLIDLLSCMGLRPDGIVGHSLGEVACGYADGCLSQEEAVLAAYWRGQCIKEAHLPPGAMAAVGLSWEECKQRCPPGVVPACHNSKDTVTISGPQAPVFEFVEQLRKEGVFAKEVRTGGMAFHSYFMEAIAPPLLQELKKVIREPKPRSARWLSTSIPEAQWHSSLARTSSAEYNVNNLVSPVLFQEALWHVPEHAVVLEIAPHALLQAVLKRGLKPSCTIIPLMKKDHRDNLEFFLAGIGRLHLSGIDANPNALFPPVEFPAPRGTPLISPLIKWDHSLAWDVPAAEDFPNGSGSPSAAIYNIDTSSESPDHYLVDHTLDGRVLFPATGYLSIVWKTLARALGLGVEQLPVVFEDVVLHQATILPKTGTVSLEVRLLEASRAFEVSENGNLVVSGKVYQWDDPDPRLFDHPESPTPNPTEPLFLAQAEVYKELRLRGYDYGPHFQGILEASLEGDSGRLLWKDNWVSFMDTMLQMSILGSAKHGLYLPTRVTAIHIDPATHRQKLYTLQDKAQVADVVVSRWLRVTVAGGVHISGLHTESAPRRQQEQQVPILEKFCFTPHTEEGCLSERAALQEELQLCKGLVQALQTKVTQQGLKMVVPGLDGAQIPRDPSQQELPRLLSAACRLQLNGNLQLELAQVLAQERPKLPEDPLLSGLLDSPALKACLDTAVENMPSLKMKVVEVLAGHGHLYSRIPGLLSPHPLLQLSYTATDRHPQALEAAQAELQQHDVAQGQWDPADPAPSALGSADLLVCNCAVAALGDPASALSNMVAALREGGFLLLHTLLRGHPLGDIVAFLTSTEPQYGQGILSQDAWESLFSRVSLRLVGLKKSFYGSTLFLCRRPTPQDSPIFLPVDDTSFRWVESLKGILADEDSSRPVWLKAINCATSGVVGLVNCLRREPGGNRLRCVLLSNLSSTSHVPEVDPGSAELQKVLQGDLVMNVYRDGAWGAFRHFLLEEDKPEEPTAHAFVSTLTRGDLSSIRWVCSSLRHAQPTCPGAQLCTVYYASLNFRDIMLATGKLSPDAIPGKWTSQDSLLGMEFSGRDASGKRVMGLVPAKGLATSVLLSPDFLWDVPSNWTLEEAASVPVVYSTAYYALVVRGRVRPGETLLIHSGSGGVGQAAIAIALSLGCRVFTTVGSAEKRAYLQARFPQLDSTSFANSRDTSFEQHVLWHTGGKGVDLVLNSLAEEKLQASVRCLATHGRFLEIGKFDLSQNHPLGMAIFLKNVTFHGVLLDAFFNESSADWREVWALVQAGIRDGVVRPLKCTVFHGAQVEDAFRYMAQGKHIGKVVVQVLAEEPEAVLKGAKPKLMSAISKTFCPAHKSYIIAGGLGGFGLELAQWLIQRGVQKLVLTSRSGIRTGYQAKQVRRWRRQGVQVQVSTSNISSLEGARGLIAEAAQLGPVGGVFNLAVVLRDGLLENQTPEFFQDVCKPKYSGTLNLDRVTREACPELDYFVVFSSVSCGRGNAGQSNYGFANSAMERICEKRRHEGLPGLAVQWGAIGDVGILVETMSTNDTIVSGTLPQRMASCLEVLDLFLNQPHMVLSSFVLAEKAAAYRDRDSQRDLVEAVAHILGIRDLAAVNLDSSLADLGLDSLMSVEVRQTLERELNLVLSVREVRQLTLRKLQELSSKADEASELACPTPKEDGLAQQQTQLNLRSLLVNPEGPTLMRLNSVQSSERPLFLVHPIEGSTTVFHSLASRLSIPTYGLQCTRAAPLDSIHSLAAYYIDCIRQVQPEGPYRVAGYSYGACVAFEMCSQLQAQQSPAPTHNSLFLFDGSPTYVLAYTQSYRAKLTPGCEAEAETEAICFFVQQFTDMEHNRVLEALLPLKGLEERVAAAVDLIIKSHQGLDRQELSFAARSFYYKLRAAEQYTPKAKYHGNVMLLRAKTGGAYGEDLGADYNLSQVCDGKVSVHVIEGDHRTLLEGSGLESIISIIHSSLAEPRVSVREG
How it was run: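 40 nM FASN preincubated with compound 60 min at 25° C in HEPES pH 7.3 buffer with 0.04% Triton X-100. Then 20 μM acetyl-CoA, 60 μM malonyl-CoA and 100 μM NADPH added for 90 min, quenched with CPM thiol probe; fluorescence 360/530 nm, IC50 by four-parameter fit.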

[1] = read-out: IC50 (uM) < 0.5, 10% lipid reduced serum, 4 days, Table 3-1

SMILES: O=C(c1ccc(-c2cnc3ccccc3c2)cc1F)N1CCN(C(=O)C2(O)CC2)CC1 [1-[(4-{[2-fluoro-4-(quinolin-3-yl)phenyl]carbonyl}piperazin-1-yl)carbonyl]cyclopropan-1-ol]
- IC50 (PC3 cells; [1]): < 0.5 µM
- IC50 (FASN enzyme): < 500 nM

SMILES: O=C(c1ccc(-c2nc3ccc(Cl)cc3o2)cc1)N1CCN(C(=O)C2(O)CC2)CC1 [1-[(4-{[4-(6-chloro-1,3-benzoxazol-2-yl)phenyl]carbonyl}piperazin-1-yl)carbonyl]cyclopropan-1-ol]
- IC50 (PC3 cells; [1]): < 0.5 µM
- IC50 (FASN enzyme): < 500 nM

SMILES: O=C(c1ccc(-c2cccc3ncccc23)cc1)N1CCN(C(=O)C2(O)CC2)CC1 [1-[(4-{[4-(quinolin-5-yl)phenyl]carbonyl}piperazin-1-yl)carbonyl]cyclopropan-1-ol]
- IC50 (PC3 cells; [1]): < 0.5 µM
- IC50 (FASN enzyme): < 500 nM

SMILES: CS(=O)(=O)Nc1cccc(-c2ccc(C(=O)N3CCN(C(=O)C4(O)CC4)CC3)cc2)c1 [N-{3-[4-({4-[(1-hydroxycyclopropyl)carbonyl]piperazin-1-yl}carbonyl)phenyl]phenyl}methanesulfonamide]
- IC50 (PC3 cells; [1]): < 0.5 µM
- IC50 (FASN enzyme): < 500 nM

SMILES: O=C(c1ccc(-c2ccc3scnc3c2)c(F)c1)N1CCN(C(=O)C2(O)CC2)CC1 [1-[(4-{[4-(1,3-benzothiazol-5-yl)-3-fluorophenyl]carbonyl}piperazin-1-yl)carbonyl]cyclopropan-1-ol]
- IC50 (PC3 cells; [1]): < 0.5 µM
- IC50 (FASN enzyme): < 500 nM

SMILES: O=C(c1ccc(-c2ccc3scnc3c2)c(Cl)c1)N1CCN(C(=O)C2(O)CC2)CC1 [1-[(4-{[4-(1,3-benzothiazol-5-yl)-3-chlorophenyl]carbonyl}piperazin-1-yl)carbonyl]cyclopropan-1-ol]
- IC50 (PC3 cells; [1]): < 0.5 µM
- IC50 (FASN enzyme): < 500 nM

SMILES: O=C(c1ccc(-c2ccc3n[nH]nc3c2)cc1)N1CCN(C(=O)C2(O)CC2)CC1 [1-[(4-{[4-(2H-1,2,3-benzotriazol-5-yl)phenyl]carbonyl}piperazin-1-yl)carbonyl]cyclopropan-1-ol]
- IC50 (PC3 cells; [1]): < 0.5 µM
- IC50 (FASN enzyme): < 500 nM

SMILES: O=C(c1ccc(-c2ccc3[nH]ccc3c2)cc1)N1CCN(C(=O)C2CCO2)CC1 (stereo not drawn) [5-[4-({4-[(oxetan-2-yl)carbonyl]piperazin-1-yl}carbonyl)phenyl]-1H-indole]
- IC50 (PC3 cells; read-out: IC50 (uM) ≥ 0.5, 10% lipid reduced serum, 4 days, Table 3-2): ≥ 0.5 µM
- IC50 (FASN enzyme): < 500 nM

SMILES: O=C(c1ccc(-c2ccc3cnccc3c2)cc1)N1CCN(C(=O)C2(O)CCC2)CC1 [1-[(4-{[4-(isoquinolin-6-yl)phenyl]carbonyl}piperazin-1-yl)carbonyl]cyclobutan-1-ol]
- IC50 (PC3 cells; [1]): < 0.5 µM
- IC50 (FASN enzyme): < 500 nM

SMILES: O=C(c1ccc(-c2ccc3occc3n2)cc1)N1CCN(C(=O)C2(O)CC2)CC1 [1-({4-[(4-{furo[3,2-b]pyridin-5-yl}phenyl)carbonyl]piperazin-1-yl}carbonyl)cyclopropan-1-ol]
- IC50 (PC3 cells; [1]): < 0.5 µM
- IC50 (FASN enzyme): < 500 nM

SMILES: O=C(c1ccc(-c2ccc3occc3c2)cc1)N1CCN(C(=O)C2(O)CC2)CC1 [1-[(4-{[4-(1-benzofuran-5-yl)phenyl]carbonyl}piperazin-1-yl)carbonyl]cyclopropan-1-ol]
- IC50 (PC3 cells; [1]): < 0.5 µM
- IC50 (FASN enzyme): < 500 nM

SMILES: O=C(c1ccc(-c2cccc3[nH]cnc23)cc1)N1CCN(C(=O)C2(O)CC2)CC1 [1-[(4-{[4-(1H-1,3-benzodiazol-4-yl)phenyl]carbonyl}piperazin-1-yl)carbonyl]cyclopropan-1-ol]
- IC50 (PC3 cells; [1]): < 0.5 µM
- IC50 (FASN enzyme): < 500 nM

SMILES: N#Cc1c[nH]c2ccc(-c3ccc(C(=O)N4CCN(C(=O)C5(O)CC5)CC4)c(Cl)c3)cc12
- IC50 (PC3 cells; [1]): < 0.5 µM
- IC50 (FASN enzyme): < 500 nM

SMILES: O=C(c1ccc(-c2ccc3[nH]ccc3c2)cc1)N1CCN(C(=O)C2(O)CC2)CC1 [1-[(4-{[4-(1H-indol-5-yl)phenyl]carbonyl}piperazin-1-yl)carbonyl]cyclopropan-1-ol]
- IC50 (PC3 cells; [1]): < 0.5 µM
- IC50 (FASN enzyme): < 500 nM

SMILES: O=C(c1ccc(-c2cc3ccccc3[nH]c2=O)cc1)N1CCN(C(=O)C2(O)CC2)CC1 [3-[4-({4-[(1-hydroxycyclopropyl)carbonyl]piperazin-1-yl}carbonyl)phenyl]-1,2-dihydroquinolin-2-one]
- IC50 (PC3 cells; [1]): < 0.5 µM
- IC50 (FASN enzyme): < 500 nM

SMILES: O=C(c1ccc(-c2ccc3ncccc3c2)cc1F)N1CCN(C(=O)C2(O)CC2)CC1 [1-[(4-{[2-fluoro-4-(quinolin-6-yl)phenyl]carbonyl}piperazin-1-yl)carbonyl]cyclopropan-1-ol]
- IC50 (PC3 cells; [1]): < 0.5 µM
- IC50 (FASN enzyme): < 500 nM

SMILES: O=C(c1ccc(-c2ccc3scnc3c2)cc1Cl)N1CCN(C(=O)C2(O)CC2)CC1 [1-[(4-{[4-(1,3-benzothiazol-5-yl)-2-chlorophenyl]carbonyl}piperazin-1-yl)carbonyl]cyclopropan-1-ol]
- IC50 (PC3 cells; [1]): < 0.5 µM
- IC50 (FASN enzyme): < 500 nM

SMILES: O=C(c1ccc(-c2cc(F)c3[nH]ccc3c2)cc1F)N1CCN(C(=O)C2(O)CC2)CC1 [1-[(4-{[2-fluoro-4-(7-fluoro-1H-indol-5-yl)phenyl]carbonyl}piperazin-1-yl)carbonyl]cyclopropan-1-ol]
- IC50 (PC3 cells; [1]): < 0.5 µM
- IC50 (FASN enzyme): < 500 nM

SMILES: O=C(c1ccc(-c2ccc3nsnc3c2)cc1)N1CCN(C(=O)C2(O)CC2)CC1 [1-[(4-{[4-(2,1,3-benzothiadiazol-5-yl)phenyl]carbonyl}piperazin-1-yl)carbonyl]cyclopropan-1-ol]
- IC50 (PC3 cells; [1]): < 0.5 µM
- IC50 (FASN enzyme): < 500 nM

SMILES: O=C(c1ccc(-c2cnc3ccccc3c2)c(F)c1)N1CCN(C(=O)C2(O)CC2)CC1 [1-[(4-{[3-fluoro-4-(quinolin-3-yl)phenyl]carbonyl}piperazin-1-yl)carbonyl]cyclopropan-1-ol]
- IC50 (PC3 cells; [1]): < 0.5 µM
- IC50 (FASN enzyme): < 500 nM

SMILES: Cn1ccc2cc(-c3ccc(C(=O)N4CCN(C(=O)C5(O)CC5)CC4)nc3)ccc21 [1-[(4-{[5-(1-methyl-1H-indol-5-yl)pyridin-2-yl]carbonyl}piperazin-1-yl)carbonyl]cyclopropan-1-ol]
- IC50 (PC3 cells; [1]): < 0.5 µM
- IC50 (FASN enzyme): < 500 nM

SMILES: Cc1nn(C)c2ccc(-c3ccc(C(=O)N4CCN(C(=O)C5(O)CC5)CC4)cc3)cc12 [1-[(4-{[4-(1,3-dimethyl-1H-indazol-5-yl)phenyl]carbonyl}piperazin-1-yl)carbonyl]cyclopropan-1-ol]
- IC50 (PC3 cells; [1]): < 0.5 µM
- IC50 (FASN enzyme): < 500 nM

SMILES: O=C(c1ccc(-c2ccc3ccccc3n2)cc1)N1CCN(C(=O)C2(O)CC2)CC1 [1-[(4-{[4-(quinolin-2-yl)phenyl]carbonyl}piperazin-1-yl)carbonyl]cyclopropan-1-ol]
- IC50 (PC3 cells; [1]): < 0.5 µM
- IC50 (FASN enzyme): < 500 nM

SMILES: O=C(c1ccc(-c2ccc3[nH]ccc3n2)cc1)N1CCN(C(=O)C2(O)CC2)CC1 [1-({4-[(4-{1H-pyrrolo[3,2-b]pyridin-5-yl}phenyl)carbonyl]piperazin-1-yl}carbonyl)cyclopropan-1-ol]
- IC50 (PC3 cells; [1]): < 0.5 µM
- IC50 (FASN enzyme): < 500 nM

SMILES: COc1ccc2nc(-c3ccc(C(=O)N4CCN(C(=O)C5(O)CC5)CC4)c(F)c3)ccc2c1 [1-[(4-{[2-fluoro-4-(6-methoxyquinolin-2-yl)phenyl]carbonyl}piperazin-1-yl)carbonyl]cyclopropan-1-ol]
- IC50 (PC3 cells; [1]): < 0.5 µM
- IC50 (FASN enzyme): < 500 nM

SMILES: Cn1cc2ccc(-c3ccc(C(=O)N4CCN(C(=O)C5(O)CC5)CC4)cc3)cc2n1 [1-[(4-{[4-(2-methyl-2H-indazol-6-yl)phenyl]carbonyl}piperazin-1-yl)carbonyl]cyclopropan-1-ol]
- IC50 (PC3 cells; [1]): < 0.5 µM
- IC50 (FASN enzyme): < 500 nM

SMILES: O=C(c1ccc(-c2ccc3ncccc3c2)cc1Cl)N1CCN(C(=O)C2(O)CC2)CC1 [1-[(4-{[2-chloro-4-(quinolin-6-yl)phenyl]carbonyl}piperazin-1-yl)carbonyl]cyclopropan-1-ol]
- IC50 (PC3 cells; [1]): < 0.5 µM
- IC50 (FASN enzyme): < 500 nM
